Results taken from patent US9808428B2, “Compositions and methods for the delivery of therapeutics” (priority 2014, dated 2017).

Tested on: HIV-1ADA
Experiment: Antiretroviral activity by reverse transcriptase (RT) activity in HIV-1 infected MDM
Type: cell-based
Conditions: 30-100 μM; MDM challenged with HIV-1ADA >15 days after 8 hours of treatment
Method: The antiretroviral activity was determined by reverse transcriptase (RT) activity and HIV-1 p24 antigen expression in HIV-1 infected MDM. […] Overall, development of long acting targeted MVC, optionally together with reverse transcriptase, protease and/or integrase inhibitors leads to improved pharmacokinetics of cART and promote improved drug adherence and access.

Cc1nnc(C(C)C)n1C1C[C@H]2CC[C@@H](C1)N2CC[C@H](NC(=O)C1CCC(F)(F)CC1)c1ccccc1 (stereo in doubt) [free MVC, maraviroc]
RT activity reductions compared to untreated infected cells: 22%
